Tests used:
c-kit kinase = target: T1, c-kit kinase (Homo sapiens, UniProt P10721); experiment: c-Kit biochemical assay, AlphaScreen, 10 μM ATP; conditions: c-kit biochemical inhibitory activity; read-out: Biochemical activity (IC50 μM) Kit
T1 construct: The c-kit (or kinase domain thereof) is an active kinase in AlphaScreen; poly-Histidine tag (in-house protein only) (cleaved yes); host or cells: E. coli BL21(DE3)RIL, co-expressed with PTP1B
Summary of the method: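 His-tagged c-Kit expressed in E. coli with co-expressed PTP1B (dephosphorylated), tag removed; 0.1 ng per reaction with biotinylated-peptide substrate in 50 mM HEPES pH 7.2, 5 mM MgCl2, 5 mM MnCl2, 5% DMSO, 10 μM ATP, 1 h at room temperature. Phosphorylation detected by AlphaScreen (streptavidin donor, PY20 acceptor beads); IC50 from 8-point 1:3 dilution series.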

c-kit mutant D816V = target: T2, c-kit mutant D816V (Homo sapiens, UniProt P10721, D816V/DEL694-753); experiment: c-Kit mutant D816V biochemical assay, AlphaScreen; conditions: c-kit D816V biochemical inhibitory activity; read-out: Biochemical activity (IC50 μM) Kit D816V
T2 construct: residues 551-934, kinase insertion domain residues 694-753 deleted; 6x-histidine (N); made in house; host or cells: E. coli Arctic Express (DE3) RIL (Stratagene)
T2 sequence (P10721 with tags, fused parts or gaps DEL694-753/D816V): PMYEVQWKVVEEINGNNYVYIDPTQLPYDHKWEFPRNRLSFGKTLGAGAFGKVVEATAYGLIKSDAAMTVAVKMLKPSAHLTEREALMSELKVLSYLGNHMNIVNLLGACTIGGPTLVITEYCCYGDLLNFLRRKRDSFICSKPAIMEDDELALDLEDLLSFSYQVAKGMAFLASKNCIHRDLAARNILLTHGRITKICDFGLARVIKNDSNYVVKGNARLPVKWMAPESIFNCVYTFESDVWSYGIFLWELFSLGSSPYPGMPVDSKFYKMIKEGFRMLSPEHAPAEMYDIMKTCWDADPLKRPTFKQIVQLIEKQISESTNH
Summary of the method: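 Purified His-tagged c-Kit D816V (E. coli-expressed) assayed in 25 mM HEPES pH 7.2 with Mg/Mn, 5% DMSO and 10 μM ATP, 30 min at room temperature, 8-point 1:3 dilutions. Phosphorylation detected by AlphaScreen with streptavidin donor and PY20 acceptor beads; IC50 from signal versus concentration.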

T1 sequence (P10721 26-976): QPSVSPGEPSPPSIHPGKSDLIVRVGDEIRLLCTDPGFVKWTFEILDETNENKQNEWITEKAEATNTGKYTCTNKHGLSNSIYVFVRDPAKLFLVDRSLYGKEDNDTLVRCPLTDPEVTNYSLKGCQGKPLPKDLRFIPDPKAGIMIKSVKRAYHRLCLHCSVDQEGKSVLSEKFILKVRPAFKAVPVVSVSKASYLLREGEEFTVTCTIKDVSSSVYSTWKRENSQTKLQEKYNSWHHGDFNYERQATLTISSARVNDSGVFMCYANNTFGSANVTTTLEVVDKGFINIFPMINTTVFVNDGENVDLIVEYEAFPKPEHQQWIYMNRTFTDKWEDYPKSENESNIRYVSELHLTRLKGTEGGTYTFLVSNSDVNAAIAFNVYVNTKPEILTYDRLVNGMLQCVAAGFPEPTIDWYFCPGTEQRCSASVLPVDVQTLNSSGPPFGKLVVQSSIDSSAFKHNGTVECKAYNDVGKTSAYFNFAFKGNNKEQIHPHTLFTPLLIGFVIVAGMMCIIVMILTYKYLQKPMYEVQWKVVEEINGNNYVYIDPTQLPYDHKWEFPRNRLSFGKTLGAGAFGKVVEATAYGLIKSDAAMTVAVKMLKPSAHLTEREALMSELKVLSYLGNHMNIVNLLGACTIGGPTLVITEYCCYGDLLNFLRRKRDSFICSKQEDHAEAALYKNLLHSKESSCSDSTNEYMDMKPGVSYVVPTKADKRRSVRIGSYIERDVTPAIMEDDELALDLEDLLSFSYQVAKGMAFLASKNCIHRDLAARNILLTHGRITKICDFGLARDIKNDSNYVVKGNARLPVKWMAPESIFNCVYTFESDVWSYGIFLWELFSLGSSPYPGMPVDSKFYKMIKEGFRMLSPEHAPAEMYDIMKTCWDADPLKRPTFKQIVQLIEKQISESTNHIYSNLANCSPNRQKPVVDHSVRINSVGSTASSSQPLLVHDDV

| SMILES | IC50 (c-kit kinase) | IC50 (c-kit mutant D816V) |
| --- | --- | --- |
| COc1ccc(S(=O)(=O)Nc2ccc(-c3ncnc4[nH]c(-c5ccc(F)cc5)cc34)c(F)c2)cc1 [P-0402, N-[3-fluoro-4-[6-(4-fluorophenyl)-7H-pyrrolo[2,3-d]pyrimidin-4-yl]phenyl]-4-methoxy-benzenesulfonamide] | 1 to 10 µM | 0.0001 to 1 µM |
| CCCS(=O)(=O)Nc1ccc(-c2ncnc3[nH]c(-c4ccc(F)cc4)cc23)cc1F [P-0403, N-[2-fluoro-4-[6-(4-fluorophenyl)-7H-pyrrolo[2,3-d]pyrimidin-4-yl]phenyl]propane-1-sulfonamide] | 0.0001 to 1 µM | 0.0001 to 1 µM |
| O=S(=O)(Nc1ccc(-c2ncnc3[nH]c(-c4ccc(F)cc4)cc23)cc1)c1ccc(F)cc1 [P-0404, 4-fluoro-N-[4-[6-(4-fluorophenyl)-7H-pyrrolo[2,3-d]pyrimidin-4-yl]phenyl]benzenesulfonamide] | 0.0001 to 1 µM | 0.0001 to 1 µM |
| CCS(=O)(=O)Nc1cccc(-c2ncnc3[nH]c(-c4ccc(F)cc4)cc23)c1 [P-0407, N-[3-[6-(4-fluorophenyl)-7H-pyrrolo[2,3-d]pyrimidin-4-yl]phenyl]ethanesulfonamide] | 1 to 10 µM | 1 to 10 µM |
| O=S(=O)(Nc1ccc(-c2ncnc3[nH]c(-c4ccc(F)cc4)cc23)cc1F)c1ccc(F)cc1 [P-0408, 4-fluoro-N-[2-fluoro-4-[6-(4-fluorophenyl)-7H-pyrrolo[2,3-d]pyrimidin-4-yl]phenyl]benzenesulfonamide] | 10 to 200 µM | 1 to 10 µM |
| COc1ccc(S(=O)(=O)Nc2ccc(-c3ncnc4[nH]c(-c5ccc(F)cc5)cc34)cc2F)cc1 [P-0409, N-[2-fluoro-4-[6-(4-fluorophenyl)-7H-pyrrolo[2,3-d]pyrimidin-4-yl]phenyl]-4-methoxy-benzenesulfonamide] | 10 to 200 µM | 1 to 10 µM |
| O=S(=O)(Nc1ccc(-c2ncnc3[nH]c(-c4ccc(F)cc4)cc23)cc1F)C1CC1 [P-0410, N-[2-fluoro-4-[6-(4-fluorophenyl)-7H-pyrrolo[2,3-d]pyrimidin-4-yl]phenyl]cyclopropanesulfonamide] | 1 to 10 µM | 0.0001 to 1 µM |
| O=S(=O)(Nc1cccc(-c2ncnc3[nH]c(-c4ccc(F)cc4)cc23)c1)C1CC1 [P-0413, N-[3-[6-(4-fluorophenyl)-7H-pyrrolo[2,3-d]pyrimidin-4-yl]phenyl]cyclopropanesulfonamide] | 1 to 10 µM | 1 to 10 µM |
| CS(=O)(=O)Nc1cccc(-c2ncnc3[nH]c(-c4ccc(F)cc4)cc23)c1 [P-0414, N-[3-[6-(4-fluorophenyl)-7H-pyrrolo[2,3-d]pyrimidin-4-yl]phenyl]methanesulfonamide] | 1 to 10 µM | 1 to 10 µM |
| Fc1ccc(-c2cc3c(-c4ccc(NCc5ccc(C(F)(F)F)nc5)nc4)ncnc3[nH]2)cc1 [P-0415, 5-[6-(4-fluorophenyl)-7H-pyrrolo[2,3-d]pyrimidin-4-yl]-N-[[6-(trifluoromethyl)-3-pyridyl]methyl]pyridin-2-amine] | 0.0001 to 1 µM | 1 to 10 µM |
| Nc1ccc(-c2ncnc3[nH]c(-c4ccc(F)cc4)cc23)cc1 [P-0416, 4-[6-(4-fluorophenyl)-7H-pyrrolo[2,3-d]pyrimidin-4-yl]aniline] | 0.0001 to 1 µM | 0.0001 to 1 µM |
| NS(=O)(=O)c1ccc(-c2ncnc3[nH]c(-c4ccc(F)cc4)cc23)cc1 [P-0418, 4-[6-(4-fluorophenyl)-7H-pyrrolo[2,3-d]pyrimidin-4-yl]benzenesulfonamide] | 1 to 10 µM | 0.0001 to 1 µM |
| CCCCS(=O)(=O)Nc1ccc(-c2ncnc3[nH]c(-c4ccc(F)cc4)cc23)cc1 [P-0419, N-[4-[6-(4-fluorophenyl)-7H-pyrrolo[2,3-d]pyrimidin-4-yl]phenyl]butane-1-sulfonamide] | 10 to 200 µM | 0.0001 to 1 µM |
| O=S(=O)(Nc1ccc(-c2ncnc3[nH]c(-c4ccc(F)cc4)cc23)cc1)C1CC1 [P-0420, N-[4-[6-(4-fluorophenyl)-7H-pyrrolo[2,3-d]pyrimidin-4-yl]phenyl]cyclopropanesulfonamide] | 10 to 200 µM | 0.0001 to 1 µM |
| COc1ccc(CNS(=O)(=O)c2ccc(-c3ncnc4[nH]c(-c5ccc(F)cc5)cc34)cc2)cc1 [P-0423, 4-[6-(4-fluorophenyl)-7H-pyrrolo[2,3-d]pyrimidin-4-yl]-N-[(4-methoxyphenyl)methyl]benzenesulfonamide] | 10 to 200 µM | 10 to 200 µM |
| Cc1ccc(NS(=O)(=O)c2ccc(-c3ncnc4[nH]c(-c5ccc(F)cc5)cc34)cc2)cc1 [P-0426, 4-[6-(4-fluorophenyl)-7H-pyrrolo[2,3-d]pyrimidin-4-yl]-N-(p-tolyl)benzenesulfonamide] | 10 to 200 µM | 1 to 10 µM |
| O=S(=O)(NC1CC1)c1cccc(-c2ncnc3[nH]c(-c4ccc(F)cc4)cc23)c1 [P-0429, N-cyclopropyl-3-[6-(4-fluorophenyl)-7H-pyrrolo[2,3-d]pyrimidin-4-yl]benzenesulfonamide] | 0.0001 to 1 µM | 0.0001 to 1 µM |

| SMILES | IC50 (c-kit kinase) | IC50 (c-kit mutant D816V) |
| --- | --- | --- |
| CNS(=O)(=O)c1ccc(-c2ncnc3[nH]c(-c4ccc(F)cc4)cc23)cc1 [P-0430, 4-[6-(4-fluorophenyl)-7H-pyrrolo[2,3-d]pyrimidin-4-yl]-N-methyl-benzenesulfonamide] | 1 to 10 µM | 0.0001 to 1 µM |
| CCS(=O)(=O)Nc1ccc(-c2ncnc3[nH]c(-c4ccc(F)cc4)cc23)cc1 [P-0431, N-[4-[6-(4-fluorophenyl)-7H-pyrrolo[2,3-d]pyrimidin-4-yl]phenyl]ethanesulfonamide] | 0.0001 to 1 µM | 0.0001 to 1 µM |
| CS(=O)(=O)Nc1ccc(-c2ncnc3[nH]c(-c4ccc(F)cc4)cc23)cc1 [P-0432, N-[4-[6-(4-fluorophenyl)-7H-pyrrolo[2,3-d]pyrimidin-4-yl]phenyl]methanesulfonamide] | 0.0001 to 1 µM | 0.0001 to 1 µM |
| Cc1ccc(S(=O)(=O)Nc2ccc(-c3ncnc4[nH]c(-c5ccc(F)cc5)cc34)cc2)cc1 [P-0433, N-[4-[6-(4-fluorophenyl)-7H-pyrrolo[2,3-d]pyrimidin-4-yl]phenyl]-4-methyl-benzenesulfonamide] | 0.0001 to 1 µM | 0.0001 to 1 µM |
| CCCS(=O)(=O)Nc1cccc(-c2ncnc3[nH]c(-c4ccc(F)cc4)cc23)c1 [P-0434, N-[3-[6-(4-fluorophenyl)-7H-pyrrolo[2,3-d]pyrimidin-4-yl]phenyl]propane-1-sulfonamide] | 1 to 10 µM | 10 to 200 µM |
| Cc1n[nH]c2ncnc(-c3ccc(NS(=O)(=O)c4ccc(C(F)(F)F)cc4)cc3)c12 [P-0438, N-[4-(3-methyl-1H-pyrazolo[3,4-d]pyrimidin-4-yl)phenyl]-4-(trifluoromethyl)benzenesulfonamide] | 1 to 10 µM | 0.0001 to 1 µM |
| Cc1n[nH]c2ncnc(-c3ccc(NS(=O)(=O)c4ccc(F)cc4)cc3)c12 [P-0439, 4-fluoro-N-[4-(3-methyl-1H-pyrazolo[3,4-d]pyrimidin-4-yl)phenyl]benzenesulfonamide] | 1 to 10 µM | 0.0001 to 1 µM |
| Cc1n[nH]c2ncnc(-c3ccc(NS(=O)(=O)c4cccc(F)c4)cc3)c12 [P-0440, 3-fluoro-N-[4-(3-methyl-1H-pyrazolo[3,4-d]pyrimidin-4-yl)phenyl]benzenesulfonamide] | 1 to 10 µM | 0.0001 to 1 µM |
| Cc1n[nH]c2ncnc(-c3ccc(NS(=O)(=O)c4ccc(C(F)(F)F)nc4)cc3)c12 [P-0441, N-[4-(3-methyl-1H-pyrazolo[3,4-d]pyrimidin-4-yl)phenyl]-6-(trifluoromethyl)pyridine-3-sulfonamide] | 10 to 200 µM | 0.0001 to 1 µM |
| CCc1ccc(S(=O)(=O)Nc2ccc(-c3ncnc4[nH]nc(C)c34)cc2)cc1 [P-0442, 4-ethyl-N-[4-(3-methyl-1H-pyrazolo[3,4-d]pyrimidin-4-yl)phenyl]benzenesulfonamide] | 1 to 10 µM | 0.0001 to 1 µM |
| Cc1n[nH]c2ncnc(-c3ccc(NS(=O)(=O)c4cccc(Cl)c4)cc3)c12 [P-0443, 3-chloro-N-[4-(3-methyl-1H-pyrazolo[3,4-d]pyrimidin-4-yl)phenyl]benzenesulfonamide] | 1 to 10 µM | 0.0001 to 1 µM |
| COc1ccc(S(=O)(=O)Nc2ccc(-c3ncnc4[nH]nc(C)c34)cc2)cc1 [P-0444, 4-methoxy-N-[4-(3-methyl-1H-pyrazolo[3,4-d]pyrimidin-4-yl)phenyl]benzenesulfonamide] | 1 to 10 µM | 0.0001 to 1 µM |
| Cc1n[nH]c2ncnc(-c3ccc(NS(=O)(=O)c4ccc(Cl)cc4)cc3)c12 [P-0445, 4-chloro-N-[4-(3-methyl-1H-pyrazolo[3,4-d]pyrimidin-4-yl)phenyl]benzenesulfonamide] | 1 to 10 µM | 0.0001 to 1 µM |
| Cc1ccc(S(=O)(=O)Nc2ccc(-c3ncnc4[nH]nc(C)c34)cc2)cc1 [P-0447, 4-methyl-N-[4-(3-methyl-1H-pyrazolo[3,4-d]pyrimidin-4-yl)phenyl]benzenesulfonamide] | 1 to 10 µM | 0.0001 to 1 µM |
| Cc1ccc(S(=O)(=O)Nc2ccc(-c3ncnc4[nH]cc(C)c34)cc2)cc1 [P-0448, 4-methyl-N-[4-(5-methyl-7H-pyrrolo[2,3-d]pyrimidin-4-yl)phenyl]benzenesulfonamide] | 1 to 10 µM | 0.0001 to 1 µM |
| Cc1ccc(S(=O)(=O)Nc2ccc(-c3ncnc4[nH]c(C)c(C)c34)cc2)cc1 [P-0449, N-[4-(5,6-dimethyl-7H-pyrrolo[2,3-d]pyrimidin-4-yl)phenyl]-4-methyl-benzenesulfonamide] | 1 to 10 µM | 1 to 10 µM |

From patent publication US10227357B2, “Compounds and methods for kinase modulation, and indications therefor” (Plexxikon Inc., priority 2012, dated 2019)
